Source: patent US9527832B2, “Substituted condensed pyrimidine compounds” (GRÜNENTHAL GMBH, priority 2013, dated 2016)
Where two headings read alike, the source gives them in different places.

Target: T1, human PDE4B1 (Homo sapiens, UniProt Q07343)
T1 construct: host or cells: Sf9 cells
Assay: cAMP HTRF assay to determine the activity of hPDE4B1
Type: biochemical
Settings: for inhibition at 1 µM: Percentage inhibition of PDE4B at 1 μM test concentration; for IC50: reported as ranges; for inhibition at 0.1 µM: Percentage inhibition of PDE4B at 0.1 μM test concentration, read-out: Inhibition [%] (inh. at 0.1 μM)
Procedure, shortened: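 Sf9-expressed recombinant human PDE4B1 (4.8 U) in Tris-HCl/MgCl2/DTT/Tween 20 buffer pH 7.8, with cAMP at 40 nM final, 30 min at room temperature. Reaction stopped with IBMX 1 mM; remaining cAMP detected by HTRF (665/620 nm ratio). IC50 from eight-point dose-response, n=2.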

[1] = dose response measurements with eight concentrations, read-out: IC50

T1 sequence (Q07343 whole entry): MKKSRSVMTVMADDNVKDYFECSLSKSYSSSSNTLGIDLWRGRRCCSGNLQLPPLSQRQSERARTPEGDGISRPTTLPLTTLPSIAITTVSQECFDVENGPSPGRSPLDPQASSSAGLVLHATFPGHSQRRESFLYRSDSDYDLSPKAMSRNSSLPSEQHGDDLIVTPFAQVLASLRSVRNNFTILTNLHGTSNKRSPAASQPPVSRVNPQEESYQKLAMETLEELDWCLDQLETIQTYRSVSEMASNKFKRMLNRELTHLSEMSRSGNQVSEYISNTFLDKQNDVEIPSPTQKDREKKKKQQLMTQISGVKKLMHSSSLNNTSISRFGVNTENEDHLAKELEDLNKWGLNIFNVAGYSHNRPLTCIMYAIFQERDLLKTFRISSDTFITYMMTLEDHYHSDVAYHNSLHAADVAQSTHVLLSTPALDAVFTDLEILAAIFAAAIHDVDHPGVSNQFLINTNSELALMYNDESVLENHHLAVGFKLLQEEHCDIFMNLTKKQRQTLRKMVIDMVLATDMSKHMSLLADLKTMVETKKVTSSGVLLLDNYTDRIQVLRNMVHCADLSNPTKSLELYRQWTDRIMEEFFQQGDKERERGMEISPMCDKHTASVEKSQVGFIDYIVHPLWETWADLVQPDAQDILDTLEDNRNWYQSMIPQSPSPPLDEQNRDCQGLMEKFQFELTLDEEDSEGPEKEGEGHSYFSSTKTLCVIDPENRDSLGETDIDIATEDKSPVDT

| inhibition at 1 µM [%] | IC50 [1] [nM] | inhibition at 0.1 µM [%] | SMILES | IC50 (IC50, dose response measurements with eight concentrations) [nM] |
| --- | --- | --- | --- | --- |
| 102 | < 100 |  | CN(C)C(=O)COc1ccc2cnn(-c3nc(-c4ccc(Cl)s4)nc4c3C[S+]([O-])C4)c2c1 (centres unmarked) [Compound No. 2-72, 2-((1-(2-(5-Chlorothiophen-2-yl)-6-oxido-5,7-dihydrothieno[3,4-d]pyrimidin-4-yl)-1H-indazol-6-yl)oxy)-N,N-dimethylacetamide] |  |
| 92 | < 100 |  | CN(C)C(=O)COc1ccc2c(c1)N(c1nc(-c3ccc(C#N)c(F)c3)nc3c1C[S+]([O-])C3)CC2 (centres unmarked) [Compound No. 2-77, 2-((1-(2-(4-Cyano-3-fluorophenyl)-6-oxido-5,7-dihydrothieno[3,4-d]pyrimidin-4-yl)indolin-6-yl)oxy)-N,N-dimethylacetamide] |  |
| 105 | < 100 |  | CN(C)C(=O)COc1ccc2c(c1)N(c1nc(-c3ccc(Cl)c(F)c3)nc3c1C[S+]([O-])C3)CC2 (centres unmarked) [Compound No. 2-78, 2-((1-(2-(4-Chloro-3-fluorophenyl)-6-oxido-5,7-dihydrothieno[3,4-d]pyrimidin-4-yl)indolin-6-yl)oxy)-N,N-dimethylacetamide] |  |
| 92 | < 100 |  | CN(C)C(=O)COc1ccc2c(c1)N(c1nc(-c3ccc(O)c(F)c3)nc3c1C[S+]([O-])C3)CC2 (centres unmarked) [Compound No. 2-79, 2-((1-(2-(3-Fluoro-4-hydroxyphenyl)-6-oxido-5,7-dihydrothieno[3,4-d]pyrimidin-4-yl)indolin-6-yl)oxy)-N,N-dimethylacetamide] |  |
|  | < 100 | 101 | CN(C)C(=O)COc1ccc2c(c1)N(c1nc(-c3ccc(C(N)=O)s3)nc3c1C[S+]([O-])C3)CC2 (centres unmarked) [Compound No. 2-80, 5-(4-(6-(2-(Dimethylamino)-2-oxoethoxy)indolin-1-yl)-6-oxido-5,7-dihydrothieno[3,4-d]pyrimidin-2-yl)thiophene-2-carboxamide] |  |
| 99 | < 100 |  | CN(C)C(=O)COc1ccc2c(c1)N(c1nc(-c3ccc(C#N)s3)nc3c1C[S+]([O-])C3)CC2 (centres unmarked) [Compound No. 2-82, 2-((1-(2-(5-Cyanothiophen-2-yl)-6-oxido-5,7-dihydrothieno[3,4-d]pyrimidin-4-yl)indolin-6-yl)oxy)-N,N-dimethylacetamide] |  |
| 111 | 100 to 1000 |  | CN(C)C(=O)COc1ccc2c(c1)N(c1nc(-c3ccc(Br)c(F)c3)nc3c1C[S+]([O-])C3)CC2 (centres unmarked) [Compound No. 2-86, 2-((1-(2-(4-Bromo-3-fluorophenyl)-6-oxido-5,7-dihydrothieno[3,4-d]pyrimidin-4-yl)indolin-6-yl)oxy)-N,N-dimethylacetamide] |  |
| 106 | < 100 |  | COc1ccc(-c2nc3c(c(N4CCc5ccc(OCC(=O)N(C)C)cc54)n2)CS(=N)(=O)C3)cc1F (centres unmarked) [Compound No. 2-115, 2-((1-(2-(3-Fluoro-4-methoxyphenyl)-6-imino-6-oxido-5,7-dihydrothieno[3,4-d]pyrimidin-4-yl)indolin-6-yl)oxy)-N,N-dimethylacetamide] |  |
| 121 |  |  | O=C(COc1ccc2c(c1)N(c1nc(-c3ccc(Cl)s3)nc3c1C[S+]([O-])C3)CC2)N1CCCC1 (centres unmarked) [Compound No. 2-116, 2-((1-(2-(5-Chlorothiophen-2-yl)-6-oxido-5,7-dihydrothieno[3,4-d]pyrimidin-4-yl)indolin-6-yl)oxy)-1-(pyrrolidin-1-yl)ethanone] |  |
| 107 |  |  | COc1ccc(-c2nc3c(c(N4CCc5ccc(OCC(=O)N6CCCC6)cc54)n2)C[S+]([O-])C3)cc1F (centres unmarked) [Compound No. 2-119, 2-((1-(2-(3-Fluoro-4-methoxyphenyl)-6-oxido-5,7-dihydrothieno[3,4-d]pyrimidin-4-yl)indolin-6-yl)oxy)-1-(pyrrolidin-1-yl)ethanone] |  |
| 116 |  |  | O=C(COc1ccc2c(c1)N(c1nc(-c3ccc(F)s3)nc3c1C[S+]([O-])C3)CC2)N1CCCC1 (centres unmarked) [Compound No. 2-120, 2-((1-(2-(5-Fluorothiophen-2-yl)-6-oxido-5,7-dihydrothieno[3,4-d]pyrimidin-4-yl)indolin-6-yl)oxy)-1-(pyrrolidin-1-yl)ethanone] |  |
| 111 |  |  | COc1ccc(-c2nc3c(c(N4CCc5ccc(OCC(=O)N6CCCC6)cc54)n2)C[S+]([O-])C3)cc1 (centres unmarked) [Compound No. 2-121, 2-((1-(2-(4-Methoxyphenyl)-6-oxido-5,7-dihydrothieno[3,4-d]pyrimidin-4-yl)indolin-6-yl)oxy)-1-(pyrrolidin-1-yl)ethanone] |  |
| 40 |  |  | O=C(COc1ccc2c(c1)N(c1nc(-c3ccc(Cl)s3)nc3c1C[S+]([O-])C3)CC2)N1CCC1 (centres unmarked) [Compound No. 2-122, 1-(Azetidin-1-yl)-2-((1-(2-(5-chlorothiophen-2-yl)-6-oxido-5,7-dihydrothieno[3,4-d]pyrimidin-4-yl)indolin-6-yl)oxy)ethanone] |  |

Second part, the compound before the results:

| SMILES | inhibition at 1 µM [%] | IC50 [1] [nM] | inhibition at 0.1 µM [%] | IC50 (IC50, dose response measurements with eight concentrations) [nM] |
| --- | --- | --- | --- | --- |
| CN(CC1CC1)C(=O)COc1ccc2c(c1)N(c1nc(-c3ccc(Cl)s3)nc3c1CCC3)CC2 [Compound No. 2-67, 2-((1-(2-(5-Chlorothiophen-2-yl)-6,7-dihydro-5H-cyclopenta[d]pyrimidin-4-yl)indolin-6-yl)oxy)-N-(cyclopropylmethyl)-N-methylacetamide] | 6 |  |  |  |
| CCNC(=O)COc1ccc2c(c1)N(c1nc(-c3ccc(Cl)s3)nc3c1CCC3)CC2 [Compound No. 2-68, 2-((1-(2-(5-Chlorothiophen-2-yl)-6,7-dihydro-5H-cyclopenta[d]pyrimidin-4-yl)indolin-6-yl)oxy)-N-ethylacetamide] | 2 |  |  |  |
| O=C(COc1ccc2c(c1)N(c1nc(-c3ccc(Cl)s3)nc3c1CCC3)CC2)NCCO [Compound No. 2-69, 2-((1-(2-(5-Chlorothiophen-2-yl)-6,7-dihydro-5H-cyclopenta[d]pyrimidin-4-yl)indolin-6-yl)oxy)-N-(2-hydroxyethyl)acetamide] | 4 |  |  |  |
| CNC(=O)COc1ccc2c(c1)N(c1nc(-c3ccc(Cl)s3)nc3c1CCC3)CC2 [Compound No. 2-70, 2-((1-(2-(5-Chlorothiophen-2-yl)-6,7-dihydro-5H-cyclopenta[d]pyrimidin-4-yl)indolin-6-yl)oxy)-N-methylacetamide] | 23 |  |  |  |
| NC(=O)COc1ccc2c(c1)N(c1nc(-c3ccc(Cl)s3)nc3c1CCC3)CC2 [Compound No. 2-71, 2-((1-(2-(5-Chlorothiophen-2-yl)-6,7-dihydro-5H-cyclopenta[d]pyrimidin-4-yl)indolin-6-yl)oxy)acetamide] | 14 |  |  |  |
| CN(C)C(=O)COc1ccc2ccn(-c3nc(-c4ccc(Cl)s4)nc4c3C[S+]([O-])C4)c2c1 (centres unmarked) [Compound No. 2-73, 2-((1-(2-(5-Chlorothiophen-2-yl)-6-oxido-5,7-dihydrothieno[3,4-d]pyrimidin-4-yl)-1H-indol-6-yl)oxy)-N,N-dimethylacetamide] | 116 | < 100 |  |  |
| CN(C)C(=O)COc1ccc2c(c1)N(c1nc(-c3ccc(C(N)=O)s3)nc3c1CS(=O)(=O)C3)CC2 [Compound No. 2-81, 5-(4-(6-(2-(Dimethylamino)-2-oxoethoxy)indolin-1-yl)-6,6-dioxido-5,7-dihydrothieno[3,4-d]pyrimidin-2-yl)thiophene-2-carboxamide] |  | < 100 | 113 |  |
| CN(C)C(=O)COc1ccc2c(c1)N(c1nc(-c3ccc(C#N)s3)nc3c1CS(=O)(=O)C3)CC2 [Compound No. 2-83, 2-((1-(2-(5-Cyanothiophen-2-yl)-6,6-dioxido-5,7-dihydrothieno[3,4-d]pyrimidin-4-yl)indolin-6-yl)oxy)-N,N-dimethylacetamide] | 97 | < 100 |  |  |
| CN(C)C(=O)COc1ccc2c(c1)N(c1nc(-c3ccc(C#N)s3)nc3c1CCC3)CC2 [Compound No. 2-84, 2-((1-(2-(5-Cyanothiophen-2-yl)-6,7-dihydro-5H-cyclopenta[d]pyrimidin-4-yl)indolin-6-yl)oxy)-N,N-dimethylacetamide] | 91 | < 100 |  |  |
| O=C(COc1ccc2c(c1)N(c1nc(-c3ccc(Cl)s3)nc3c1CCC3)CC2)NC1CC1 [Compound No. 2-114, 2-((1-(2-(5-Chlorothiophen-2-yl)-6,7-dihydro-5H-cyclopenta[d]-pyrimidin-4-yl)indolin-6-yl)oxy)-N-cyclopropylacetamide] | 38 |  |  |  |
| CN1CCN(C(=O)COc2ccc3c(c2)N(c2nc(-c4ccc(Cl)s4)nc4c2C[S+]([O-])C4)CC3)CC1 (centres unmarked) [Compound No. 2-117, 2-((1-(2-(5-Chlorothiophen-2-yl)-6-oxido-5,7-dihydrothieno[3,4-d]pyrimidin-4-yl)indolin-6-yl)oxy)-1-(4-methylpiperazin-1-yl)ethanone] | 88 |  |  |  |
| O=C(COc1ccc2c(c1)N(c1nc(-c3ccc(Cl)s3)nc3c1C[S+]([O-])C3)CC2)N1CCOCC1 (centres unmarked) [Compound No. 2-118, 2-((1-(2-(5-Chlorothiophen-2-yl)-6-oxido-5,7-dihydrothieno[3,4-d]pyrimidin-4-yl)indolin-6-yl)oxy)-1-morpholinoethanone] | 93 |  |  |  |
| CN1CCN(C(=O)COc2ccc3c(c2)N(c2nc(-c4ccc(Cl)s4)nc4c2CS(=O)(=O)C4)CC3)CC1 [Compound No. 2-123, 2-((1-(2-(5-Chlorothiophen-2-yl)-6,6-dioxido-5,7-dihydrothieno[3,4-d]pyrimidin-4-yl)indolin-6-yl)oxy)-1-(4-methylpiperazin-1-yl) ethanone] | 95 |  |  | < 100 |
| O=C(COc1ccc2c(c1)N(c1nc(-c3ccc(Cl)s3)nc3c1CS(=O)(=O)C3)CC2)N1CCC1 [Compound No. 2-124, 1-(Azetidin-1-yl)-2-((1-(2-(5-chlorothiophen-2-yl)-6,6-dioxido-5,7-dihydrothieno[3,4-d]pyrimidin-4-yl)indolin-6-yl)oxy)ethanone] | 104 | < 100 |  |  |
